For one assay, the system named is ES xenografts. Nature of the assay: ES xenograft tumor regression in mice. Particulars: 400 mg/kg intraperitoneal, three days, 6 total doses, tumors 300 mm^3. The class given is in vivo. The procedure:
FIG. 13A: Mice with ES xenografts were treated with 400 mg/kg compound or controls as indicated. Starting well-established tumors (300 mm^3), mice were treated with intraperitoneal compound for three days, 6 total doses. FIG. 13B: H and E stained tumors from same experiment.
YK-4-279 upon xenograft GBM tumors is evaluated by treating animals seven days after tumor injection and those with symptomatic tumors. Early tumors are screened with Xenogen, and size correlated with MRI, and treatment started when animals 5 mm^3 lesions. YK-4-279 passes the blood-brain barrier. […] The study will measure brain tumor volumes, animal symptoms, and overall survival. At necropsy, tumors and normal adjacent brain will be evaluated by immunohistochemistry for GBM markers, apoptosis, and FLI1 regulated target genes. […] FIG. 13A: Mice with ES xenografts were treated with 400 mg/kg compound or controls as indicated. Starting well-established tumors (300 mm^3), mice were treated with intraperitoneal compound for three days, 6 total doses. FIG. 13B: H and E stained tumors from same experiment.

The target in another assay is T1, EWS-FLI1 (Homo sapiens, UniProt Q01543+Q01844).
T1 sequence (Q01543 220-452 limits assumed): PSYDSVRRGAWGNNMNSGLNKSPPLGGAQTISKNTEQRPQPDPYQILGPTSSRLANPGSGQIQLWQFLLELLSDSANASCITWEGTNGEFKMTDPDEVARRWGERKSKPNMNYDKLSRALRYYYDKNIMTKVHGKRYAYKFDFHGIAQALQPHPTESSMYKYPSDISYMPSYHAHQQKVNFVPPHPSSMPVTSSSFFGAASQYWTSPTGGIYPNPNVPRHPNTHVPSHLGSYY
The note with it: enantiomer specificity; cited from earlier work.

Assay [1] relates to PANC1 (a human pancreatic carcinoma). Nature of the assay: IC50 activity in PANC1 cells. The class given is cell-based. The procedure: (§1) Compounds provided in Table 2 were prepared using methods similar to those described herein. The structures and IC50 activities of particular compounds in PANC1 (a human pancreatic carcinoma), TC32 (human ESFT cell line), and TC71 (human ESFT cell line) cells are summarized in Table 2.

Assay [2] has as its system TC32 (human ESFT cell line). Put plainly: IC50 activity in TC32 cells. The class given is cell-based. As to the method: as §1
For assay [3], the system named is TC71 (human ESFT cell line). Put plainly: IC50 activity in TC71 cells. It is filed as cell-based. As to the method:
as §1
Growth inhibition of ESFT cells was measured for various concentrations of particular compounds.

Setting [4] is: Homo sapiens, PANC-1, PANC1 cells.
Where [5] appears, read: Homo sapiens, TC-32, TC32 cells.
[6] abbreviates: Homo sapiens, TC-71, TC71 cells.

Each structure is given as a SMILES string. pIC50: −log10 of the molar value. Where two headings read alike, the source gives them in different places.

We go through 32 compounds from US9511050B2, “Methods and compositions for treating cancer” (GEORGETOWN UNIVERSITY, priority 2013, dated 2016).

Take `COc1ccc(C(=O)C[C@@]2(O)C(=O)Nc3c(Cl)ccc(Cl)c32)cc1` [(S)-YK-4-279]: in the assay on ES xenografts, the tumor response entry is reported as “significant tumor regression”. Also, the “inhibition of functional activities of EWS-FLI1” value at EWS-FLI1 is on record as “able to inhibit the functional activities of EWS-FLI1”.

Turning to `COc1cccc(C(=O)CC2(O)C(=O)Nc3c(Cl)ccc(Cl)c32)c1OC` (centres unmarked) [PT-1-20], the pIC50 in assay [1] (setting [4]), in assay [2] (setting [5]) and in assay [3] (setting [6]) was at most 4.40 in each case.

With `CN(C)c1ccc(C(=O)/C=C2/C(=O)Nc3c(Cl)ccc(Cl)c32)cc1` [PT-1-53], the figures for the pIC50 in assay [1] (setting [4]), in assay [2] (setting [5]) and in assay [3] (setting [6]) were 5.66, at most 4.40 and 5.39, respectively.

For the compound `COc1ccc(C(=O)/C=C2\C(=O)Nc3c(Cl)ccc(Cl)c32)c(OC)c1` [PT-1-39], the negative-log IC50 (pIC50) in assay [1] (setting [4]) is 5.27; in assay [1] (PANC1 cells, read-out: IC50 PANC 1), 5.17; in assay [2] (setting [5]), 5.98; in assay [2] (TC32 cells), 5.78; in assay [3] (setting [6]), 5.74; in assay [3] (TC71 cells), 5.63.

For `COc1cc(OC)cc(C(=O)CC2(O)C(=O)Nc3c(Cl)ccc(Cl)c32)c1` (centres unmarked) [PT-1-22], the pIC50 in assay [1] (setting [4]) is at most 4.40; in assay [2] (setting [5]) it was 5.05; in assay [3] (setting [6]), at most 4.40.

In the case of `COc1ccc(C(=O)CC2(O)C(=O)N(C)c3ccccc32)cc1` (centres unmarked) [PT-2-64], the pIC50 in assay [1] (setting [4]), in assay [2] (setting [5]) and in assay [3] (setting [6]) was at most 4.40 throughout.

Turning to `COc1ccc(C(=O)/C=C2\C(=O)Nc3c(Cl)ccc(Cl)c32)cc1` [PT-1-33], the pIC50 in assay [1] (setting [4]) was at most 4.40; in assay [2] (setting [5]), 5.99; in assay [3] (setting [6]), 5.79.

For `COc1ccc(C(=O)CC2(OC)C(=O)Nc3c(Cl)ccc(Cl)c32)cc1` (centres unmarked) [PT-2-78], the pIC50 in assay [1] (setting [4]), in assay [2] (setting [5]) and in assay [3] (setting [6]) was at most 4.40 throughout.

For the compound `COc1ccc(C(=O)CC2(O)C(=O)Nc3ccccc32)cc1` (centres unmarked) [PT-1-267], the pIC50 in assay [1] (setting [4]), in assay [2] (setting [5]) and in assay [3] (setting [6]) was at most 4.40 in each case.

With `O=C(CC1(O)C(=O)Nc2c(Cl)ccc(Cl)c21)c1ccc(O)cc1` (centres unmarked) [YK-4-289], the pIC50 in assay [1] (setting [4]), in assay [2] (setting [5]) and in assay [3] (setting [6]) was at most 4.40 each time.

As to `O=C(CC1(O)C(=O)Nc2c(Cl)ccc(Cl)c21)c1ccc(C(F)(F)F)cc1` (centres unmarked) [PT-1-15], the pIC50 is 4.96 in assay [1] (setting [4]), 5.53 in assay [2] (setting [5]) and 5.16 in assay [3] (setting [6]).

Consider `COc1cccc(C(=O)CC2(O)C(=O)Nc3c(Cl)ccc(Cl)c32)c1` (centres unmarked) [PT-1-18], for which the pIC50 in assay [1] (setting [4]), in assay [2] (setting [5]) and in assay [3] (setting [6]) was at most 4.40 in each case.

`COc1ccccc1C(=O)CC1(O)C(=O)Nc2c(Cl)ccc(Cl)c21` (centres unmarked) [PT-1-12]: the pIC50 in assay [1] (setting [4]), in assay [2] (setting [5]) and in assay [3] (setting [6]) was at most 4.40 each time.

In the case of `O=C(CC1(O)C(=O)Nc2c(Cl)ccc(Cl)c21)c1ccc(Cl)cc1` (centres unmarked) [YK-4-275], the pIC50 in assay [1] (setting [4]) was 4.96; in assay [2] (setting [5]), at most 4.40; in assay [3] (setting [6]), 4.62.

For the compound `COc1ccc(C(=O)CC2(O)C(=O)Nc3c(Cl)ccc(Cl)c32)cc1OC` (centres unmarked) [PT-1-21], the pIC50 in assay [1] (setting [4]), in assay [2] (setting [5]) and in assay [3] (setting [6]) was at most 4.40 throughout.

As to `O=C(CC1(O)C(=O)Nc2c(Cl)ccc(Cl)c21)c1ccc(I)cc1` (centres unmarked) [YK-4-277], the negative-log IC50 (pIC50) in assay [1] (setting [4]), in assay [2] (setting [5]) and in assay [3] (setting [6]) was at most 4.40 each time.

On to `COc1ccc(C(=O)CC2(O)C(=O)Nc3c(Cl)ccc(Cl)c32)c(OC)c1OC` (centres unmarked) [PT-1-23], for which the results for the pIC50 in assay [1] (setting [4]), in assay [2] (setting [5]) and in assay [3] (setting [6]) were at most 4.40, 5.57 and 5.35, respectively.

On to `CCOc1ccc(C(=O)CC2(O)C(=O)Nc3c(Cl)ccc(Cl)c32)cc1` (centres unmarked) [PT-1-14], for which the pIC50 in assay [1] (setting [4]) is 4.95; in assay [2] (setting [5]) it was 5.57; in assay [3] (setting [6]), 5.45.

Consider `CC(C)Oc1ccc(C(=O)CC2(O)C(=O)Nc3c(Cl)ccc(Cl)c32)cc1` (centres unmarked) [PT-1-69], for which the pIC50 in assay [1] (setting [4]), in assay [2] (setting [5]) and in assay [3] (setting [6]) was at most 4.40 each time.

As for `CN(C)c1ccc(C(=O)CC2(O)C(=O)Nc3c(Cl)ccc(Cl)c32)cc1` (centres unmarked) [PT-1-17], the pIC50 in assay [1] (setting [4]) is at most 4.40; in assay [2] (setting [5]), 6.59; in assay [2] (TC32 cells) it was 6.55; in assay [3] (setting [6]), 6.40; in assay [3] (TC71 cells) it was 6.53. For the same compound, in assay [3] (TC71 cells), the “potency compared with YK-4-279” value is “appeared to be more potent”.

With `COc1ccc(C(=O)CC2(O)C(=O)Nc3cccc(Cl)c32)cc1` (centres unmarked) [PT-1-275], the pIC50 in assay [1] (setting [4]), in assay [2] (setting [5]) and in assay [3] (setting [6]) was at most 4.40 throughout.

As for `O=C(CC1(O)C(=O)Nc2c(Cl)ccc(Cl)c21)c1ccccc1Cl` (centres unmarked) [YK-4-282], the pIC50 in assay [1] (setting [4]), in assay [2] (setting [5]) and in assay [3] (setting [6]) was at most 4.40 each time.

As for `Cc1ccc(C(=O)CC2(O)C(=O)Nc3c(Cl)ccc(Cl)c32)cc1` (centres unmarked) [YK-4-280], the figures for the pIC50 in assay [1] (setting [4]), in assay [2] (setting [5]) and in assay [3] (setting [6]) were at most 4.40, 4.92 and 4.52, respectively.

As to `COc1cc(C(=O)CC2(O)C(=O)Nc3c(Cl)ccc(Cl)c32)cc(OC)c1OC` (centres unmarked) [PT-1-13], the pIC50 in assay [1] (setting [4]), in assay [2] (setting [5]) and in assay [3] (setting [6]) was at most 4.40 in each case.

With `C/C=C1\NC(=O)C(O)(CC(=O)c2ccc(OC)cc2)\C1=C/C` (centres unmarked) [PT-2-37], the pIC50 in assay [1] (setting [4]), in assay [2] (setting [5]) and in assay [3] (setting [6]) was at most 4.40 each time.

In the case of `COc1ccc(C(=O)CC2(O)C(=O)Nc3c(Cl)cccc32)cc1` (centres unmarked) [PT-2-52], the pIC50 in assay [1] (setting [4]), in assay [2] (setting [5]) and in assay [3] (setting [6]) was at most 4.40 throughout.

For the compound `O=C(CC1(O)C(=O)Nc2c(Cl)ccc(Cl)c21)c1ccc(F)cc1` (centres unmarked) [YK-4-278], the negative logarithm of the IC50 (pIC50) in assay [1] (setting [4]), in assay [2] (setting [5]) and in assay [3] (setting [6]) was at most 4.40 each time.

Take `COc1ccc(CC(=O)CC2(O)C(=O)Nc3c(Cl)ccc(Cl)c32)cc1` (centres unmarked) [PT-2-59]: the negative-log IC50 (pIC50) in assay [1] (setting [4]), in assay [2] (setting [5]) and in assay [3] (setting [6]) was at most 4.40 in each case.

On to `COc1ccc(C(=O)CC2(O)C(=O)Nc3c(Cl)ccc(Cl)c32)c(OC)c1` (centres unmarked) [PT-1-19], for which the pIC50 is 4.64 in assay [1] (setting [4]), 5.58 in assay [2] (setting [5]) and 5.55 in assay [3] (setting [6]).

`COc1ccc(C(=O)CC2(OC)C(=O)N(C)c3c(Cl)ccc(Cl)c32)cc1` (centres unmarked) [PT-2-79]: the pIC50 in assay [1] (setting [4]) was 4.95; in assay [2] (setting [5]), 4.92; in assay [3] (setting [6]), 4.77.

On to `O=C(CC1(O)C(=O)Nc2c(Cl)ccc(Cl)c21)c1ccc([N+](=O)[O-])cc1` (centres unmarked) [YK-4-286], for which the results for the negative logarithm of the IC50 (pIC50) in assay [1] (setting [4]), in assay [2] (setting [5]) and in assay [3] (setting [6]) were at most 4.40, 5.33 and 5.04, respectively.

Regarding `N#Cc1ccc(C(=O)CC2(O)C(=O)Nc3c(Cl)ccc(Cl)c32)cc1` (centres unmarked) [PT-1-11], the figures for the negative logarithm of the IC50 (pIC50) in assay [1] (setting [4]), in assay [2] (setting [5]) and in assay [3] (setting [6]) were at most 4.40, 4.99 and 4.91, respectively.

As a reminder, the pIC50 is the IC50 on a negative log10 scale, so that one unit is a factor of ten.
